Assay results as given in patent publication US8912184B1, “Therapeutic and diagnostic methods” (Alzheimer's Institute of America, Inc., priority 2010, dated 2014).

What was measured:
[1] = assay type: in vivo; details: mice, single oral dose 300 mg/kg, by 5 days
[2] = system: MIAPaCa-2 xenograft tumors; assay: MIAPaCa-2 human pancreatic carcinoma murine xenograft, tumor growth and survival; assay type: in vivo, mice; details: for animals having tumor volumes >1500 mm3 at end of study: Day 40
Method: Exemplary Compound A was tested for its ability to suppress tumor growth, and promote survival in MIAPaCa-2 human pancreatic carcinoma (i.e., a Naprt-deficient cancer) murine xenograft models (FIG. 9). In these experiments, MIAPaCa-2 tumor-bearing mice with a median tumor volume of 202 mm^3 were orally dosed on days 1, 10 and 19 with either vehicle, 75 mg/kg Exemplary Compound A or 200 mg/kg Exemplary Compound A in combination with 400 mg/kg NA, or were orally dosed daily with 400 mg/kg NA for 21 days. See key below FIG. 9(b). NA was always administered one hour prior to dosing with Exemplary Compound A or vehicle.

HCT116 cells [3] = assay: NAD measured in cellular lysates (NAD depletion) of HCT116 cells; assay type: cell-based, human; details: for IC50: Homo sapiens
Method: NAD in cells was measured by modification of existing protocols (Lee, H. I., et al. Exp. Mol. Med. 40, 246-253 (2008)). MCF-10A cells stably transduced with the PIK3CA(H1047R) oncogene were seeded in 96 well plates at very high density (100% confluence) and allowed to settle overnight. Test compound dissolved in DMSO was added and drug incubation proceeded for 20-24 hours. Cells were washed with PBS and harvested by incubation in 25 μL 0.5 M perchloric acid (HClO4) followed by vigorous shaking at 4° C. for 15 minutes. Acidic cell lysates were neutralized by adding 8 μL of 2 M KOH/0.2 M K2HPO4. The entire lysate volume was transferred to a centrifuge plate and spun at 3000 rpm in a table top centrifuge (4° C.) for 5 minutes to clear the precipitate. Lysate was assayed for both NAD and ATP. For NAD measurement, 10 μL lysate from the centrifuged plate was added to 90 μL of reaction solution in Costar 96 half-well plates (Corning, Corning, N.Y.). […]. Reactions were allowed to proceed for 1 hour at room temperature, after which time fluorescence was read on a Gemini plate reader as described above.
Using such methods NAD Depeletion was followed in lysates of Naprt-proficient HCT116 cells, exposed to Exemplary Compound A, as shown in FIG. 4 (a). […].
Kinetics of NAD and ATP depletion in Naprt1-proficient HCT116 cells induced by Exemplary Compound A was studied using the assays described above. HCT116 cells were treated with 8.5 nM Exemplary Compound A and cellular NAD and ATP were measured at various times.
Potency of Exemplary Compound A as a function of time of exposure was also studied using the assays described above. Cells were treated with a range of Exemplary Compound A concentration for varying times of exposure, and IC50 values for NAD and ATP depletion were determined. […].

HCT116 cells [4] = assay: ATP measured in cellular lysates (ATP depletion) of HCT116 cells; assay type: cell-based; details: Homo sapiens, read-out: potency (IC50) for ATP depletion
Method: NAD in cells was measured by modification of existing protocols (Lee, H. I., et al. Exp. Mol. Med. 40, 246-253 (2008)). MCF-10A cells stably transduced with the PIK3CA(H1047R) oncogene were seeded in 96 well plates at very high density (100% confluence) and allowed to settle overnight. Test compound dissolved in DMSO was added and drug incubation proceeded for 20-24 hours. Cells were washed with PBS and harvested by incubation in 25 μL 0.5 M perchloric acid (HClO4) followed by vigorous shaking at 4° C. for 15 minutes. Acidic cell lysates were neutralized by adding 8 μL of 2 M KOH/0.2 M K2HPO4. The entire lysate volume was transferred to a centrifuge plate and spun at 3000 rpm in a table top centrifuge (4° C.) for 5 minutes to clear the precipitate. […] Reactions were allowed to proceed for 1 hour at room temperature, after which time fluorescence was read on a Gemini plate reader as described above.
For ATP measurement, 5 μL of cleared lysate was added to 195 μL PBS. 50 μL CellTiter-Glo reagent (Promega Corporation, Madison, Wis.) was added and ATP measured as described in the cytotoxicity assay methods.
Kinetics of NAD and ATP depletion in Naprt1-proficient HCT116 cells induced by Exemplary Compound A was studied using the assays described above. HCT116 cells were treated with 8.5 nM Exemplary Compound A and cellular NAD and ATP were measured at various times. […]

HCT116 xenograft tumors = assay: NAD levels in tumor lysates of HCT116 xenograft mice; assay type: in vivo; details: single oral dose on day 0, after two days
Method: Exemplary Compound A was tested for its ability to deplete NAD levels and promote tumor regression in an HCT116 (i.e., a Naprt-proficient cancer) murine xenograft model. Three million HCT116 human colon carcinoma cells were injected subcutaneously into nu/nu mice to form tumors. Dosing was started ten days later when median tumor volume was >100 mm^3.
Exemplary Compound A was administered orally once on day 0 (arrow) to HCT116 tumor-bearing xenograft mice and NAD levels were determined for tumor lysates every other day for 8 days.

For `O=C(NCc1cccnc1)Nc1ccc(COc2ccccc2-c2ccccc2)cc1` [Exemplary Compound A, 1-{4-[(biphenyl-2-yloxy)methyl]phenyl}-3-(pyridin-3-ylmethyl)urea], the lethality [1] was “completely lethal”, the survival ([2]; 200 mg/kg with 400 mg/kg NA) was “significantly increased survival” and the “animals having tumor volumes >1500 mm3 at end of study” value ([2]; 200 mg/kg with 400 mg/kg NA) was “two”. The “tumor growth inhibition (TGI) relative to vehicle” value ([2]; oral 75 mg/kg days 1, 10, 19, day 19) was 53%, the “tumor growth inhibition (TGI)” value ([2]; oral 200 mg/kg with 400 mg/kg NA days 1, 10, 19, day 19) was 88% and the “animals having tumor volumes >1500 mm3 at end of study” value ([2]; other cohorts (incl. 75 mg/kg)) was “eight”. The “NAD depletion reached before loss of ATP initiated” value (HCT116 cells [3]; HCT116 cells, 8.5 nM) was > 90%, the IC50 (HCT116 cells [3]; HCT-116, 0.5 h, exposure 30 min, read-out: potency (IC50) for NAD depletion) was 23 nM and the IC50 (HCT116 cells [3]; HCT-116, 24 h, HCT116 cells, 24 h, absence of 10 μM NA, read-out: IC50 NAD depletion) was 0.26 nM. For the same molecule, the IC50 (HCT116 cells [3]; HCT-116, 24 h, HCT116 cells, 24 h, presence of 10 μM NA, read-out: IC50 NAD depletion) was > 1000 nM, the IC50 (HCT116 cells [3]; HCT-116, 48 h, after 48 h exposure, read-out: potency (IC50) for NAD depletion) was ~0.6 nM and the IC50 (HCT116 cells [4]; HCT-116, 0.5 h, exposure 30 min) was 33 nM. For the same molecule, the IC50 (HCT116 cells [4]; HCT-116, after 48 h exposure) was ~0.6 nM and the “depletion of NAD in tumor lysates” value (HCT116 xenograft tumors) was 94%.
